For one assay, the system named is plasma HIV RNA. Description: Plasma HIV RNA copy number by cDNA gene amplification (PCR) and enzyme-linked affinity assay. Type of assay: in vivo, human (HIV antibody-positive subjects). The following applies: individual patient. The source says: After informed consent was obtained, whole blood samples were collected by venipuncture in the presence of acid-citrate-dextrose as an anticoagulant. A single plasma sample was collected from 39 HIV antibody-positive subjects who were not receiving antiretroviral therapy at the time of collection and from 33 HIV antibody-positive subjects who were currently on and had received AZT for a minimum of 3 mo.
(§1) Two plasma samples were collected from an additional 27 subjects before and 1 month after initiation of dideoxynucleoside therapy. 18 of these subjects received 500 mg/d of AZT orally. Seven subjects received a combination of zidovudine (150-600 mg/d) and 2′,3′-dideoxyinosine (ddI) (134-500 mg/d). Two patients received 500 mg/d of ddI alone (see Table I for individual subject characteristics). Finally, nine of these subjects had two plasma samples taken 1-3 wk. before initiating antiretroviral therapy and two plasma samples taken 1 and 2 mo. after commencing therapy. Plasma was separated within 4 h. by centrifugation at 500 g for 10 min. A second centrifugation was performed on the plasma at 500 g for 30 min. to remove any cellular material. 200 μl of plasma was then mixed with 200 μl of a solution containing 5M guanidinium thiocyanate, vortexed briefly, and stored at −70° C. until further use. All samples were assayed within 3 mo. of collection. To decrease variance, all specimens to be compared from the same subject were run in the same assay.
RNA was extracted from plasma by the method described in Chomczynski et al., 1987, Ann. Biochem. 162:156-159. Briefly, 200 μl of clarified plasma to which 200 μl of 5M guanidinium thiocyanate had previously been added was extracted with phenol/chloroform and precipitated with isopropanol. The resulting pellet was then washed in 75% ethanol, dried, and brought up in diethylpyrocarbonate treated, glass distilled water.
HIV RNA was transcribed to cDNA using Moloney murine leukemia virus reverse transcriptase (Bethesda Research Laboratories, Gaithersburg, Md.) by the method described in Kawasaki, 1990, “In PCR Protocols: A Guide to Methods and Applications” pp. 21-27, M. A. Innis, D. H. Gelfand, J. J. Sninsky, and T. J. White, eds. Academic Press, Berkeley, Calif. Oligomers used for amplification included SK38, SK39, and SK19 (Kellog et al., 1990, “In PCR Protocols: A Guide to Methods and Applications,” pp. 337-348, M. A. Innis, D. H. Gelfand, J. J. Sninsky, and T. J. White, eds. Academic Press, Berkeley, Calif.). Biotinylation of SK38 and horseradish peroxidase (HRP) labeling of probe SK19 were prepared as described in Levenson et al., 1990, “In PCR Protocols: A Guide to Methods and Applications,” pp. 99-112M. S. Innis, D. H. Gelfand, J. J. Sninsky, and T. J. White, eds. Academic Press, Berkeley, Calif. Amplification of HIV cDNA was carried out as follows: to a 100-μl reaction mixture was added the cDNA, 50 pmol of primers SK38 and SDK39, […] of each dNTP, 10 mM Tris (pH 8.3), 2.5 mM MgCl2, 50 mM KCl, and 2.5 U of recombiTaq DNA polymerase (Perkin-Elmer Cetus, Norwalk, Conn.). The mixture was then overlaid with 50 μl of mineral oil. Tubes were placed in a DNA thermal cycler (Perkin-Elmer Cetus) for 30 cycles of amplification with the following program: 95° C./30 s, 55° C./30s, and 72° C./60 s for denaturation, annealing, and extension, respectively. Negative and positive controls which included both high and low copy number HIV RNA and DNA were added at each step.
To detect and quantitate PCR product, 96-well microplates (Maxisorp; Nunc, Naperville, Ill.) were coated with 100 μl of a 0.1 mg/ml solution of avidin (Sigma Chemical Co., St. Louis, Mo.) in 50 mM Na2CO3 (pH 9.6) overnight at room temperature. Wells were then washed twice with PBS. Wells were then filled with 300 μl of a blocking solution containing 5X Denhardt's solution, 1% gelatin (Sigma), […] sheared herring sperm DNA (Promega Biotec, Madison, Wis.) at least overnight at 4° C. […]

The subject of a further assay is CD4 cells. Set-up: species or system human (HIV antibody-positive subjects). The settings on record: human, in vivo. The method, then: as §1
Sample optical density was converted to copy number and analyses performed on samples expressed as RNA copy number/200 μl of plasma. […] A t test of paired samples was used to analyze paired plasma data and CD4 counts from subjects pre- and post-therapy. All t tests were two tailed. […]

In another assay the test system is serum HIV RNA. Description: Serum virus burden by quantitative PCR in patients receiving didanosine monotherapy. The format is in vivo, human (patients infected with HIV). An excerpt: Duplicate serum samples were ultracentrifuged, and the pellet was purified by phenol-chloroform extraction and alcohol precipitation, as previously described for plasma (Winters et al., 1993, J. Clin. Microbiol. 31:2960-2966). Polymerase chain reaction quantification of viral RNA was done using reverse-transcriptase PCR, and the PCR product was detected using a nonisotopic enzyme-hybridization assay, as previously described (Winters et al., 1992, PCR Methods Appl. 1:257-262). Results were then expressed as HIV RNA copies per milliliter of serum.
(§2) A two-sided t-test was used to compare changes in virus burden between patient groups. A standard one-sample, two-sided Wilcoxon test was used to compare differences in the change of slopes of CD4^+ T cells (slopes of CD4^+ cells before the mutation compared with slopes of CD4^+ cells after the mutation) for patients developing a mutation at codon 74. The slope difference test analysis pertained to the slope difference statistic, defined to be the difference in fitted slope of the CD4^+ counts after compared with before the mutation at codon 74. Thirty-four of 38 patients in the mutation group had sufficient data to allow computation of the slope difference statistic.

Another assay has as its system CD4+ T cells. The experiment in a line: CD4+ T-cell slope changes before/after codon 74 mutation on didanosine. The format is in vivo, human (patients infected with HIV). The settings on record: 34 of 38 patients who developed the mutation; CI −2.68 to −0.71.
Excerpt: as §2
We compared the slope difference statistic values for the 34 mutants with the corresponding values from the wild-type group in order to see if they were more negative in the mutant group. […]

The subject of assay [1] is HIV with codon 74 mutation in reverse transcriptase. The settings on record: codon 74 mutation in an HIV construct (St. Clair et al.); cited from earlier work.

“And” between values parts separate entries of the source, which are not always exact repeats. Identical values can stand only once.

As for `OC[C@@H]1CC[C@H](n2cnc3c(O)ncnc32)O1` [ddI, 2′,3′-dideoxyinosine], in the assay on plasma HIV RNA (1 mo after initiation, ddI 500 mg/d), the “Post HIV RNA” value is 0 copy number/200 μl of plasma. Moreover, in the assay on plasma HIV RNA (before initiation of therapy), the “Pre HIV RNA” value is 966 copy number/200 μl of plasma and 3944 copy number/200 μl of plasma. Also, the “Post CD4” value with CD4 cells is 328/310 and 222/370. The “Pre CD4” value with CD4 cells is 328/310 and 222/370. Besides, the “Fold Difference in virus burden, mutant vs wild type” value in the assay with serum HIV RNA (Week 0, listed as DIDANOSINE) is given as 1.66 fold; in the assay on serum HIV RNA (Week 0, listed as didanosine), 1.6 fold; in the assay on serum HIV RNA (Week 24, listed as DIDANOSINE) it was 2.71 fold; in the assay on serum HIV RNA (Week 24, listed as didanosine), 2.7 fold. For the same compound, the “Week 0, mean HIV RNA copies/mL serum” value is reported as 83 000 copies/mL serum in the assay on serum HIV RNA (patients whose codon 74 genotypes became mutant, initiation of didanosine); 50100 copies/mL serum in the assay on serum HIV RNA (patients whose codon 74 genotypes remained wild type, initiation of didanosine, listed as DIDANOSINE); 50 100 copies/mL serum with serum HIV RNA (patients whose codon 74 genotypes remained wild type, initiation of didanosine, listed as didanosine); 83000 copies/mL serum with serum HIV RNA ({}). In the assay with serum HIV RNA (remained wild type at codon 74), the “Fold increase in virus burden between week 0 to 24” value is given as 1.65 fold. The “Week 24, mean HIV RNA copies/mL serum” value with serum HIV RNA (remained wild type at codon 74) stood at 82400 copies/mL serum; with serum HIV RNA ({}) it was 225000 copies/mL serum. Besides, the “mean serum virus burden” value in the assay on serum HIV RNA (subgroup codon 74 mutation with codon 215 mutation, after 24 weeks of didanosine) is “about 275 400 HIV RNA copies/mL serum”. Besides, the “median greater decline of CD4+ T-cell slope after vs before codon 74 mutation” value in the assay on CD4+ T cells is −1.54 CD4^+ cells/wk. Also, the “decrease in susceptibility to didanosine” value in assay [1] is “eightfold”.

The record behind these values is patent publication USRE38352E1, “Polymerase chain reaction assays for monitoring antiviral therapy and making therapeutic decisions in the treatment of acquired immunodeficiency syndrome” (priority 1992, dated 2003).
